Results: patent US12421238B2, “Selective dihydropyrrolopyrimidine JAK2 inhibitors” (CHENGDU JINRUI FOUNDATION BIOTECH CO., LTD., priority 2019, dated 2025)

Legend:
HEL92.1.7 = HEL92.1.7 cell proliferation experiment (Cell Titer-Glo); assay type: cell-based; details: Homo sapiens, HEL 92.1.7; HEL92.1.7 cells, 72 hours
TF-1 = TF-1 cell proliferation experiment (CellTiter Glo); assay type: cell-based; details: Homo sapiens; TF-1 cells, 72 hours; read-out: TF-1 (μM), proliferation inhibition
JAK1 = JAK1 (Homo sapiens, UniProt P23458); assay: Kinase activity test on JAK1 (Caliper EZ Reader conversion rate)
JAK2 = JAK2 (Homo sapiens, UniProt O60674); assay: Kinase activity test on JAK2 (Caliper EZ Reader conversion rate); details: for JAK1/JAK2 / JAK3/JAK2: ratio of IC50 values; for JAK1/JAK2: selectivity for JAK2 over JAK1; for JAK3/JAK2: selectivity for JAK2 over JAK3
JAK3 = target: T1, JAK3 (Homo sapiens, UniProt P52333); assay: Kinase activity test on JAK3 (Caliper EZ Reader conversion rate)
T1 sequence (P52333 1-1124): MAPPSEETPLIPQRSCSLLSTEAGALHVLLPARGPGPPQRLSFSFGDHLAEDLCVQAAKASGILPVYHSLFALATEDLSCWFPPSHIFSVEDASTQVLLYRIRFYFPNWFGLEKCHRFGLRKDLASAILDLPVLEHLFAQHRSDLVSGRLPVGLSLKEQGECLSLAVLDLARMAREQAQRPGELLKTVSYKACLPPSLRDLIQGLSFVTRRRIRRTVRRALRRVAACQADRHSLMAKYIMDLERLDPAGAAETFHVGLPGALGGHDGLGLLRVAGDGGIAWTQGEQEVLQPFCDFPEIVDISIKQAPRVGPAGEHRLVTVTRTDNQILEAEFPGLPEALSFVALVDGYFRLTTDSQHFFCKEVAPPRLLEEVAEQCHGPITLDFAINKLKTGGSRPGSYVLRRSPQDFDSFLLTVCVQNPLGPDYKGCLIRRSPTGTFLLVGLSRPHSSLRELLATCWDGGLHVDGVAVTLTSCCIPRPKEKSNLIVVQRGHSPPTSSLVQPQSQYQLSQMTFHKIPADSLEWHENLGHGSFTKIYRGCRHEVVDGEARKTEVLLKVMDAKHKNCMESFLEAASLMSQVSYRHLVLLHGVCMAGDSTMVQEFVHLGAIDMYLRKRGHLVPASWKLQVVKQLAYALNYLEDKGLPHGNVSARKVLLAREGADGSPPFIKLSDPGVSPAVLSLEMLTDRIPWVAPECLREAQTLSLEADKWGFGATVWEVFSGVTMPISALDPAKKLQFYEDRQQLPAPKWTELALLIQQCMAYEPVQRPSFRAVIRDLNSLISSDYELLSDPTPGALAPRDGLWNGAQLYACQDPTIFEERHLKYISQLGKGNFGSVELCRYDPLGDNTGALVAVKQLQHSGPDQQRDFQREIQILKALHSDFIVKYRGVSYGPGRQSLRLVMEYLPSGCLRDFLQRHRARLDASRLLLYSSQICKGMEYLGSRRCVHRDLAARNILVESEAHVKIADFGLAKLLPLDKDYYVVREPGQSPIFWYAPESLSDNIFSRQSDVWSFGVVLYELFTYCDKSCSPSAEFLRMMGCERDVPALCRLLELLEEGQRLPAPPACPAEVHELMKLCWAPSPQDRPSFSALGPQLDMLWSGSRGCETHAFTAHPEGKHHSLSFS

[1] = Pharmacokinetic test in SD rats, intragastric administration; assay type: in vivo; details: rat, po, single intragastric administration, 25 mg/kg, plasma; for Cmax: read-out: Blood concentration Cmax; for AUC(0-t): read-out: Curve area AUClast; for half-life: read-out: Half life t1/2 (converted); for Tmax: read-out: Time to peak Tmax
Procedure: SD rats were used as the test animals.
Standard curve and preparation and processing of quality control samples:
Stock solution was diluted with 50% acetonitrile/water solution to obtain standard working solutions of 0.04, 0.10, 0.20, 0.40, 1.00, 2.00, 4.00 μg/mL, and quality control working solutions of 0.10, 1.00, 3.00 μg/mL. 2.50 μL of standard curve working solutions and quality control working solutions were added to 47.5 μL of blank rat plasma, respectively, to obtain standard curve solutions having analyte concentrations of 2.00, 5.00, 10.00, 20.00, 50.00, 100.00, 200.00 ng/mL and quality control samples having concentrations of 5.00, 50.00, and 150.00 ng/mL. 200 μL of acetonitrile (containing 5 ng/mL of the internal standard loratadine) was added. After vortexing for 3 minutes, the solutions were centrifuged at 15000 rpm at 4° C. for 15 minutes. 100 μL of the supernatant was taken for LC-MS/MS analysis. WinNonlin® 8.0 was used to calculate the experimental results.

[2] = Acute toxicity test, single oral administration to ICR mice (MTD); assay type: in vivo; details: ICR, mouse, in vivo, po, read-out: MTD (maximum tolerated dose)

Chain of JAK2 (O60674 whole entry): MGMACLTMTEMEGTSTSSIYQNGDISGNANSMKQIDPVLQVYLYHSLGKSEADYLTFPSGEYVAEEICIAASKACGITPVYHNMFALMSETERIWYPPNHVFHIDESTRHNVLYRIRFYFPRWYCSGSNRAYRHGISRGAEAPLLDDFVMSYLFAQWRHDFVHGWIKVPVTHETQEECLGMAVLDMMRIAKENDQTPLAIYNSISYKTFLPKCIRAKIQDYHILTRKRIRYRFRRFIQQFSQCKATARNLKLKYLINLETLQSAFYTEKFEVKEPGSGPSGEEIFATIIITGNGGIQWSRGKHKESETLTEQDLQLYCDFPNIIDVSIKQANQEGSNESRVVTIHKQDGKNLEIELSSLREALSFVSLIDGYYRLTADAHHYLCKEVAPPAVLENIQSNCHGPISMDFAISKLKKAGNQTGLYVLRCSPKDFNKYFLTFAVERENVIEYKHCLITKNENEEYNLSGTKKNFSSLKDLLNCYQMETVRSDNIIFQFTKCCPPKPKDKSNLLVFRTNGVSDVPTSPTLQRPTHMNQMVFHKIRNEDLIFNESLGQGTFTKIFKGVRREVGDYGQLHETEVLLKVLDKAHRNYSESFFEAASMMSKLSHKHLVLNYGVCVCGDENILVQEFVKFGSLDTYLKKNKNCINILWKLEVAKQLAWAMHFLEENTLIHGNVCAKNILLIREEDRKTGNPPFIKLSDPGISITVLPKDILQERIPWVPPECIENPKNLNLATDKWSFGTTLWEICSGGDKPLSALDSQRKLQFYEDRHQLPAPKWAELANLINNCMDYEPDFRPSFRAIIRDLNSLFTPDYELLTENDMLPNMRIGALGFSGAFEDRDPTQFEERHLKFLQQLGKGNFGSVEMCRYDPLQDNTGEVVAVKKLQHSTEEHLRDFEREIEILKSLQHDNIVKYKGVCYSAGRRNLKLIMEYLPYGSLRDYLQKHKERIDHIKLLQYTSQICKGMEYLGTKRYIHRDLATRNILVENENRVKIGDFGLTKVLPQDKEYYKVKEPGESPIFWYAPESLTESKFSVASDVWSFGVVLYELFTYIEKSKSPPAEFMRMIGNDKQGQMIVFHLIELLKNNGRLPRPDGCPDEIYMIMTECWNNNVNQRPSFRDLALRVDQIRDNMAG
Chain of JAK1 (P23458 whole entry): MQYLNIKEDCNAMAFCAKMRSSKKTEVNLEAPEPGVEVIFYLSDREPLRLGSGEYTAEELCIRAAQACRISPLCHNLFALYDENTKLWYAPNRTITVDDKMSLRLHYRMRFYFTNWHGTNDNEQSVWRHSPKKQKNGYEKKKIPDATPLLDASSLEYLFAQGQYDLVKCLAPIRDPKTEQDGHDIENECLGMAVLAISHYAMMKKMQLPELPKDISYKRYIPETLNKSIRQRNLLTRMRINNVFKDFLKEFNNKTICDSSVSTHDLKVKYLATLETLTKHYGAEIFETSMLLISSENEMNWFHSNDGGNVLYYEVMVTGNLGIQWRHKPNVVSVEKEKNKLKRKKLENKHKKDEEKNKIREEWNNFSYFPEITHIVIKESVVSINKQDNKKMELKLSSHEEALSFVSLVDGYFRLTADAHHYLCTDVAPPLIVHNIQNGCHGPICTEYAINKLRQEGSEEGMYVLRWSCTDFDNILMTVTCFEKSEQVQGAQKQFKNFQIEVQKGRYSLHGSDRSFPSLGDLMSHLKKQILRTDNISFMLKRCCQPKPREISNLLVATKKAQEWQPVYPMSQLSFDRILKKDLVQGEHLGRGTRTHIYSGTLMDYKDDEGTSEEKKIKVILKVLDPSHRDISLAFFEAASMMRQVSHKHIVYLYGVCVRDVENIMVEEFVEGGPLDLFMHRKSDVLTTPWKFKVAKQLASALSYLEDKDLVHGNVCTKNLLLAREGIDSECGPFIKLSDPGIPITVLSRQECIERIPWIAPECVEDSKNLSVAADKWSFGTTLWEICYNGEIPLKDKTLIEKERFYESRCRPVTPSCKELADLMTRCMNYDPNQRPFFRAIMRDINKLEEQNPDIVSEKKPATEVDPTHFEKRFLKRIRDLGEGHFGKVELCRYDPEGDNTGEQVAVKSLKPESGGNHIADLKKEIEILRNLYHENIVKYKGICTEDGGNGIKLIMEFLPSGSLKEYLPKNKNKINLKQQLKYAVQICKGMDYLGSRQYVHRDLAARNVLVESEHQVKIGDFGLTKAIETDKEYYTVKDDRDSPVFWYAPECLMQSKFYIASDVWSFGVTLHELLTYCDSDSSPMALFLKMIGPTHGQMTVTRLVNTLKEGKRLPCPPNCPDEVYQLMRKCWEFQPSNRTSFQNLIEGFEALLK

Which IC50 (HEL92.1.7) does the source give for CCN1CCN(Cc2ccc(Nc3ncc4c(n3)N(c3cccc(S(=O)(=O)NC(C)(C)C)c3)CC4)cc2)CC1 [Compound I-8] here?
Its IC50 is 0.33 µM.

And the IC50 (TF-1)?
The IC50 was 0.23 µM.

What about the IC50 (JAK1) of the same molecule?
The IC50 was 151 nM.

And the IC50 (JAK2)?
The IC50 was 1.2 nM.

And the JAK1/JAK2 (JAK2)?
Its JAK1/JAK2 is 126.

What about the JAK3/JAK2 (JAK2) of the same molecule?
Its JAK3/JAK2 is 833.

What about the IC50 (JAK3) of the same molecule?
The IC50 was 1000 nM.

Which results are given for CC(C)(C)NS(=O)(=O)c1cccc(N2CCc3cnc(Nc4ccc(OCCN5CCCC5)cc4)nc32)c1 [Compound I-1]?
IC50 (HEL92.1.7): 0.23 µM; IC50 (TF-1): 0.15 µM; Cmax [1]: 998 ng/mL; AUC(0-t) [1]: 798 ng·h/mL; half-life [1]: 5.8 h; Tmax [1]: 1 h; MTD at 6 days [2]: > 2000 mg/kg; IC50 (JAK1): 210 nM; IC50 (JAK2): 2.5 nM; JAK1/JAK2 (JAK2): 84; JAK3/JAK2 (JAK2): 504; IC50 (JAK3): 1260 nM

For CC(C)(C)NS(=O)(=O)c1cccc(N2CCc3cnc(Nc4ccc(CN5CCOCC5)cc4)nc32)c1 [Compound I-11], which IC50 (HEL92.1.7) is on record?
The IC50 was 0.24 µM.

What about the IC50 (TF-1) of the same molecule?
The IC50 was 0.17 µM.

And the IC50 (JAK1)?
The IC50 was 105 nM.

What about the IC50 (JAK2) of the same molecule?
The IC50 was 0.8 nM.

And the JAK1/JAK2 (JAK2)?
The JAK1/JAK2 was 131.

And the JAK3/JAK2 (JAK2)?
The JAK3/JAK2 was 1225.

What about the IC50 (JAK3) of the same molecule?
Its IC50 is 980 nM.

With CN1CCC(Cc2ccc(Nc3ncc4c(n3)N(c3cccc(S(=O)(=O)NC(C)(C)C)c3)CC4)cc2)CC1 [Compound I-7] as the molecule, how does the IC50 (HEL92.1.7) read?
Its IC50 is 0.25 µM.

And the IC50 (TF-1)?
Its IC50 is 0.19 µM.

And the IC50 (JAK1)?
The IC50 was 103 nM.

And the IC50 (JAK2)?
Its IC50 is 0.9 nM.

And the JAK1/JAK2 (JAK2)?
The JAK1/JAK2 was 114.

What about the JAK3/JAK2 (JAK2) of the same molecule?
The JAK3/JAK2 was 1000.

What about the IC50 (JAK3) of the same molecule?
The IC50 was 900 nM.

Which results are given for CC(C)(C)NS(=O)(=O)c1cccc(N2CCc3cnc(Nc4ccc(CN5CCSCC5)cc4)nc32)c1 [Compound I-13]?
IC50 (HEL92.1.7): 0.31 µM; IC50 (TF-1): 0.27 µM; Cmax [1]: 979 ng/mL; AUC(0-t) [1]: 955 ng·h/mL; half-life [1]: 5.5 h; Tmax [1]: 2 h; MTD at 6 days [2]: ≥ 1000 mg/kg; IC50 (JAK1): 89 nM; IC50 (JAK2): 1 nM; JAK1/JAK2 (JAK2): 89; JAK3/JAK2 (JAK2): 865; IC50 (JAK3): 865 nM

Which IC50 (HEL92.1.7) does the source give for CC(C)(C)NS(=O)(=O)c1cccc(N2CCc3cnc(Nc4ccc(N5CCCCC5)cc4)nc32)c1 [Compound I-18] here?
Its IC50 is 0.2 µM.

What about the IC50 (TF-1) of the same molecule?
The IC50 was 0.15 µM.

What about the IC50 (JAK1) of the same molecule?
The IC50 was 109 nM.

What about the IC50 (JAK2) of the same molecule?
Its IC50 is 0.7 nM.

And the JAK1/JAK2 (JAK2)?
Its JAK1/JAK2 is 156.

And the JAK3/JAK2 (JAK2)?
The JAK3/JAK2 was 1588.

What about the IC50 (JAK3) of the same molecule?
The IC50 was 1110 nM.

For CN1CCC(c2ccc(Nc3ncc4c(n3)N(c3cccc(S(=O)(=O)NC(C)(C)C)c3)CC4)cc2)CC1 [Compound I-21], which IC50 (HEL92.1.7) is on record?
The IC50 was 0.22 µM.

What about the IC50 (TF-1) of the same molecule?
Its IC50 is 0.15 µM.

What about the IC50 (JAK1) of the same molecule?
Its IC50 is 101 nM.

And the IC50 (JAK2)?
Its IC50 is 0.8 nM.

And the JAK1/JAK2 (JAK2)?
The JAK1/JAK2 was 126.

What about the JAK3/JAK2 (JAK2) of the same molecule?
The JAK3/JAK2 was 1235.

What about the IC50 (JAK3) of the same molecule?
The IC50 was 988 nM.

With CC(C)(C)NS(=O)(=O)c1cccc(N2CCc3cnc(Nc4ccc(OCCN5CCCCC5)cc4)nc32)c1 [Compound I-5] as the molecule, how does the IC50 (HEL92.1.7) read?
Its IC50 is 0.18 µM.

And the IC50 (TF-1)?
The IC50 was 0.22 µM.

And the Cmax [1]?
Its Cmax is 1120 ng/mL.

And the AUC(0-t) [1]?
Its AUC(0-t) is 812 ng·h/mL.

And the half-life [1]?
The half-life was 6.1 h.

And the Tmax [1]?
Its Tmax is 1.5 h.

What about the IC50 (JAK1) of the same molecule?
Its IC50 is 99 nM.

What about the IC50 (JAK2) of the same molecule?
Its IC50 is 1.1 nM.

And the JAK1/JAK2 (JAK2)?
The JAK1/JAK2 was 90.

And the JAK3/JAK2 (JAK2)?
Its JAK3/JAK2 is 1118.

And the IC50 (JAK3)?
The IC50 was 1230 nM.

Which IC50 (HEL92.1.7) does the source give for CC(C)(C)NS(=O)(=O)c1cccc(N2CCc3cnc(Nc4ccc(OCCN5CCOCC5)cc4)nc32)c1 [Compound I-3] here?
Its IC50 is 0.19 µM.

What about the IC50 (TF-1) of the same molecule?
Its IC50 is 0.18 µM.

What about the Cmax [1] of the same molecule?
The Cmax was 1230 ng/mL.

And the AUC(0-t) [1]?
Its AUC(0-t) is 903 ng·h/mL.

And the half-life [1]?
Its half-life is 5.9 h.

And the Tmax [1]?
Its Tmax is 1.5 h.

What about the IC50 (JAK1) of the same molecule?
Its IC50 is 100 nM.

And the IC50 (JAK2)?
Its IC50 is 1 nM.

And the JAK1/JAK2 (JAK2)?
Its JAK1/JAK2 is 100.

And the JAK3/JAK2 (JAK2)?
The JAK3/JAK2 was 877.

What about the IC50 (JAK3) of the same molecule?
Its IC50 is 877 nM.

Which IC50 (HEL92.1.7) does the source give for CC(C)(C)NS(=O)(=O)c1cccc(N2CCc3cnc(Nc4ccc(OCCN5CCSCC5)cc4)nc32)c1 [Compound I-14] here?
Its IC50 is 0.43 µM.

What about the IC50 (TF-1) of the same molecule?
The IC50 was 0.28 µM.

And the Cmax [1]?
The Cmax was 1230 ng/mL.

And the AUC(0-t) [1]?
The AUC(0-t) was 900 ng·h/mL.

And the half-life [1]?
Its half-life is 6.9 h.

What about the Tmax [1] of the same molecule?
Its Tmax is 1.5 h.

And the IC50 (JAK1)?
The IC50 was 102 nM.

What about the IC50 (JAK2) of the same molecule?
The IC50 was 1.1 nM.

What about the JAK1/JAK2 (JAK2) of the same molecule?
Its JAK1/JAK2 is 93.

What about the JAK3/JAK2 (JAK2) of the same molecule?
The JAK3/JAK2 was 907.

And the IC50 (JAK3)?
Its IC50 is 998 nM.
